Experimental data taken from US9815851B2, “Pyrrolo carboxamides as modulators of orphan nuclear receptor RAR-related orphan receptor-gamma (RORγ, NR1F3) activity and for the treatment of chronic inflammatory and autoimmune diseases” (PHENEX PHARMACEUTICALS AG, priority 2011, dated 2017).
Where two headings read alike, the source gives them in different places.

Tests used:
[1] = biological target: T1, RORγ ligand binding domain (LBD) (Homo sapiens, UniProt P51449); assay: TR-FRET Activity Assay (ligand sensing, RORγ-LBD / coactivator peptide interaction, LANCE); format: biochemical
T1 construct: made in house; host or cells: E. coli BL-21 (BL3), vector pDEST15
T1 sequence (P51449 269-508 limits assumed): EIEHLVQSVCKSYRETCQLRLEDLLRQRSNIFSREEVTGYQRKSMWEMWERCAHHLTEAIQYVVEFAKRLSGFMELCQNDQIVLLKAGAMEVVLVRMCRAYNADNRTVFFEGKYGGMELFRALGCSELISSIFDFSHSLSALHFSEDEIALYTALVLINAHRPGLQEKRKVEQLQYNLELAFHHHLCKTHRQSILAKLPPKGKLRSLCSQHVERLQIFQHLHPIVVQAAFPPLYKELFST

RORγ = biological target: T2, RORγ (UniProt P51449); assay: RORγ Gal4 Reporter Gene Assay in 293T cells (firefly and renilla luciferase); format: cell-based, human
T2 sequence (P51449 1-518): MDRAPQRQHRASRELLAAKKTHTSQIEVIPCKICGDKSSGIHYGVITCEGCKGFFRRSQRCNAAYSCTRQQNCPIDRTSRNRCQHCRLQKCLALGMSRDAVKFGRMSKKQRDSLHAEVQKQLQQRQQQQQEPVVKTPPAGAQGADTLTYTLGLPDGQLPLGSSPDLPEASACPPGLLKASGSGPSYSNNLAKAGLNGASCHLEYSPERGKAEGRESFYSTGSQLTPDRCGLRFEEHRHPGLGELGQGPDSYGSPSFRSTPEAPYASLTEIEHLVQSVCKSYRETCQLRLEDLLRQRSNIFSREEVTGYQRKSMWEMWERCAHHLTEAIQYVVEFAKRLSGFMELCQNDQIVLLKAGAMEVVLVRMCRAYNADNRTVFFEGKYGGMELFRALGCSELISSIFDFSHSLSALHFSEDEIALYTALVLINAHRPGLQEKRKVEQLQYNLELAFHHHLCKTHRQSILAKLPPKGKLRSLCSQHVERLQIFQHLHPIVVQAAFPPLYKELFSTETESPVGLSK

[2] = first value of the cell FRET/FF/REN, TR-FRET activity assay, read-out: pIC50 (FRET) (converted)
[3] = second value of the cell, Gal4 reporter gene assay in 293T cells, firefly luciferase
[4] = third value of the cell, Gal4 reporter gene assay in 293T cells, renilla normalised luciferase

## Cc1c(C(=O)NC2CCOCC2)cc(-c2ccc(S(=O)(=O)NC(C)(C)C)c(C(F)(F)F)c2Cl)n1CC1CCCCC1 [17/288]
[1]; [2]
  IC50: 398 nM
RORγ; [3]
  pIC50 (FF): 7.3
RORγ; [4]
  pIC50 (REN): 7.3

## Cc1c(C(=O)NC2CCOCC2)cc(C2=NN(C(=O)NC(C)(C)C)C3(CCCCC3)C2)n1CC1CCCCC1 [Example 24, N-(tert-Butyl)-3-(1-(cyclohexylmethyl)-5-methyl-4-((tetrahydro-2H-pyran-4-yl)carbamoyl)-1H-pyrrol-2-yl)-1,2-diazaspiro[4.5]dec-2-ene-1-carboxamide]
[1]; [2]
  IC50: 3160 nM
RORγ; [3]
  pIC50 (FF): 6.4
RORγ; [4]
  pIC50 (REN): 6.4

## Cc1c(C(=O)NC2CCOCC2)cc(-c2ccc(S(=O)(=O)NC(C)(C)C)c(OC(F)F)c2)n1CC1CCCCC1 [17/106]
[1]; [2]
  IC50: 501 nM
RORγ; [3]
  pIC50 (FF): 7.3
RORγ; [4]
  pIC50 (REN): 7.3

## Cc1c(C(=O)NCCCCCC(=O)O)cc(-c2cc(C(C)(C)C)cc(C(C)(C)C)c2)n1CC1CCCCC1 [1/72]
[1]; [2]
  IC50: 1000 nM
RORγ; [3]
  pIC50 (FF): 7.1
RORγ; [4]
  pIC50 (REN): 7.1

## Cc1c(C(=O)NCCC[S+](C)[O-])cc(-c2cc(C(C)(C)C)c3c(c2)C2(CCO3)CC2)n1CC1CCCCC1 (stereo not drawn) [17/2]
[1]
  IC50: 1000 nM
RORγ
  pIC50 (FF): 6.0/6.6/6.5
  pIC50 (REN): 6.0/6.6/6.5

## Cc1c(C(=O)N[C@@H]2CCOC2)cc(-c2cc(C(C)(C)C)cc(C3(C)CC3)c2)n1CC1CCCCC1 [17/66]
[1]
  IC50: 158 nM
RORγ; [3]
  pIC50 (FF): 7.4
RORγ; [4]
  pIC50 (REN): 7.4

## Cc1c(C(=O)NCC2(C(=O)O)CC2)cc(-c2cc(C(C)(C)C)c3c(c2)C2(CCO3)CC2)n1CC1CCCCC1 [17/51]
[1]; [2]
  IC50: 1580 nM
RORγ; [3]
  pIC50 (FF): 6.7
RORγ; [4]
  pIC50 (REN): 6.7

## Cc1c(C(=O)NCCc2noc(=O)[nH]2)cc(-c2cc(C(C)(C)C)cc(C3(C)CC3)c2)n1CC1CCCCC1 [17/178]
[1]; [2]
  IC50: 794 nM
RORγ; [3]
  pIC50 (FF): 7.9
RORγ; [4]
  pIC50 (REN): 7.9

## Cc1c(C(=O)N(C)C2CCOCC2)cc(-c2ccc(S(=O)(=O)NC(C)(C)C)c(C(C)(C)C)c2)n1CC1CCCCC1 [17/95]
[1]; [2]
  IC50: 631 nM
RORγ; [3]
  pIC50 (FF): 7.8
RORγ; [4]
  pIC50 (REN): 7.7

## Cc1c(C(N)=O)cc(-c2ccc(S(=O)(=O)NC(C)(C)C)c(C(C)(C)C)c2)n1CC1CCCCC1 [1/13]
[1]; [2]
  IC50: 1260 nM
RORγ; [3]
  pIC50 (FF): 6.2
RORγ; [4]
  pIC50 (REN): 6.1

## CC(C)(C)NS(=O)(=O)c1ccc(-c2cc(C(=O)N[C@H]3C[C@H](C(=O)O)C3)c(F)n2CC2CCCCC2)cc1C(F)(F)F [20/7]
[1]; [2]
  IC50: 398 nM
RORγ; [3]
  pIC50 (FF): 6.2
RORγ; [4]
  pIC50 (REN): 6.2

## Cc1c(S(=O)(=O)NC(C)(C)C)ccc(-c2cc(C(=O)NC3CCOCC3)c(C)n2CC2CCCCC2)c1OC(F)F [17/285]
[1]; [2]
  IC50: 631 nM
RORγ; [3]
  pIC50 (FF): 7.3
RORγ; [4]
  pIC50 (REN): 7.4

## Cc1c(C(=O)NCC2CCOCC2)cc(-c2ccc(S(=O)(=O)NC(C)(C)C)c(C(C)(C)C)c2)n1CC1CCCCC1 [1/10]
[1]
  IC50: 501 nM
RORγ
  pIC50 (FF): 6.3/7.5/7.5
  pIC50 (REN): 6.3/7.5/7.5

## Cc1c(C(=O)N2CCCC(C)(C(=O)O)C2)cc(-c2ccc(S(=O)(=O)NC(C)(C)C)c(C(F)(F)F)c2)n1CC1CCCCC1 (stereo not drawn) [17/225]
[1]; [2]
  IC50: 794 nM
RORγ; [3]
  pIC50 (FF): 7.6
RORγ; [4]
  pIC50 (REN): 7.6

## Cc1c(S(=O)(=O)NC(C)(C)C)ccc(-c2cc(C(=O)NC3CCOCC3)c(C)n2CC2CCCCC2)c1C(F)(F)F [17/287]
[1]; [2]
  IC50: 631 nM
RORγ; [3]
  pIC50 (FF): 7.7
RORγ; [4]
  pIC50 (REN): 7.7

## Cc1c(C(=O)NCc2cocn2)cc(-c2cc(C(C)(C)C)c3c(c2)C2(CCO3)CC2)n1CC1CCCCC1 [17/18]
[1]
  IC50: 1000 nM
RORγ
  pIC50 (FF): 6.0/6.1/6.1
  pIC50 (REN): 6.0/6.1/6.1

## COCCNC(=O)c1cc(-c2cc(C(C)(C)C)c(O)c(C(C)(C)C)c2)n(CC2CCCCC2)c1C [1/46]
[1]
  IC50: 316 nM
RORγ
  pIC50 (FF): 6.5/6.5/6.5
  pIC50 (REN): 6.5/6.5/6.5

## Cc1c(C(=O)NCC(C)(C)O)cc(-c2cc(C(=O)N(C)C(C)(C)C)cc(C3(C)CC3)c2)n1CC1CCCCC1 [1/110]
[1]; [2]
  IC50: 794 nM
RORγ; [3]
  pIC50 (FF): 7.3
RORγ; [4]
  pIC50 (REN): 7.4

## Cc1c(C(=O)NCCO)cc(-c2cc(C(C)(C)C)cc(C(C)(C)C)c2)n1CC1CCCCC1 [1/54]
[1]
  IC50: 398 nM
RORγ
  pIC50 (FF): 6.4/6.3/6.4
  pIC50 (REN): 6.4/6.3/6.4

## Cc1c(C(=O)NC2CCOCC2)cc(-c2ccc(S(=O)(=O)NC(C)(C)C)c(C(F)(F)F)c2)n1CC1CCC1 [17/215]
[1]; [2]
  IC50: 316 nM
RORγ; [3]
  pIC50 (FF): 7.5
RORγ; [4]
  pIC50 (REN): 7.3

## COCc1c(C(=O)NCC(C)(C)O)cc(-c2ccc(S(=O)(=O)NC(C)(C)C)c(C(C)(C)C)c2)n1CC1CCCCC1 [1/28]
[1]; [2]
  IC50: 794 nM
RORγ; [3]
  pIC50 (FF): 6.7
RORγ; [4]
  pIC50 (REN): 6.8

## Cc1c(C(=O)NCC(C)(C)c2noc(=O)[nH]2)cc(-c2cc(C(C)(C)O)cc(C3(C)CC3)c2)n1CC1CCCCC1 [17/310]
[1]; [2]
  IC50: 1000 nM
RORγ; [3]
  pIC50 (FF): 7.4
RORγ; [4]
  pIC50 (REN): 7.6

## Cc1c(C(=O)NCCC(C)(C)C(=O)O)cc(-c2ccc(-c3ccnn3C(C)C)c(C(F)(F)F)c2)n1CC1CCCCC1 [17/250]
[1]; [2]
  IC50: 1580 nM
RORγ; [3]
  pIC50 (FF): 6.6
RORγ; [4]
  pIC50 (REN): 6.5

## Cc1c(C(=O)NC2CCOCC2)cc(-c2ccc(S(=O)(=O)NC3(C)COC3)c(C(F)(F)F)c2)n1CC1CCCCC1 [17/145]
[1]; [2]
  IC50: 631 nM
RORγ; [3]
  pIC50 (FF): 7.6
RORγ; [4]
  pIC50 (REN): 7.7

## Cc1c(C(=O)NCCC(=O)O)cc(-c2cc(C(C)(C)C)c3c(c2)C2(CCO3)CC2)n1CC1CCCCC1 [1/90]
[1]; [2]
  IC50: 2000 nM
RORγ; [3]
  pIC50 (FF): 7.0
RORγ; [4]
  pIC50 (REN): 6.9

## Cc1c(C(=O)NCC2COC2)cc(-c2cc(C(C)(C)C)c3c(c2)C2(CCO3)CC2)n1CC1CCCCC1 [1/100]
[1]; [2]
  IC50: 251 nM
RORγ; [3]
  pIC50 (FF): 7.2
RORγ; [4]
  pIC50 (REN): 7.2

## Cc1c(C(=O)N[C@H]2C[C@H](C(=O)O)C2)cc(-c2ccc(-c3ccnn3C(C)C)c(C(C)(C)C)c2)n1CC1CCCCC1 [26/5]
[1]; [2]
  IC50: 316 nM
RORγ; [3]
  pIC50 (FF): 7.9
RORγ; [4]
  pIC50 (REN): 8.0

## Cc1c(C(=O)NCC2(C)COC2)cc(-c2cc(S(=O)(=O)N3CCCCC3)c3ccccn23)n1CC1CCCCC1 [Example 8, 1-(Cyclohexylmethyl)-2-methyl-N-((3-methyloxetan-3-yl)methyl)-5-(1-(piperidin-1-ylsulfonyl)indolizin-3-yl)-1H-pyrrole-3-carboxamide]
[1]; [2]
  IC50: 3980 nM
RORγ; [3]
  pIC50 (FF): 7.2
RORγ; [4]
  pIC50 (REN): 7.2

## Cc1c(C(=O)NC2CCOCC2)cc(-c2ccc(S(=O)(=O)NC(C)(C)CCF)c(C(F)(F)F)c2)n1CC1CCCCC1 [18/2]
[1]; [2]
  IC50: 251 nM
RORγ; [3]
  pIC50 (FF): 8.0
RORγ; [4]
  pIC50 (REN): 8.2

## Cc1c(C(=O)N2CCOCC2)cc(-c2cc(C(C)(C)C)cc(C(C)(C)C)c2)n1CC1CCCCC1 [1/52]
[1]; [2]
  IC50: 158 nM
RORγ; [3]
  pIC50 (FF): 6.4
RORγ; [4]
  pIC50 (REN): 6.5

## Cc1c(C(=O)N[C@H]2C[C@H](C(=O)O)C2)cc(-c2cc(C(F)(F)F)cc(C3(C)CC3)c2)n1CC1CCCCC1 [17/300]
[1]; [2]
  IC50: 794 nM
RORγ; [3]
  pIC50 (FF): 7.3
RORγ; [4]
  pIC50 (REN): 7.6

## Cc1c(C(=O)NCC(C)(C)O)cc(-c2ccc(S(=O)(=O)N(C)C(C)(C)C)c(C(C)(C)C)c2)n1CC1CCCCC1 [9/9]
[1]; [2]
  IC50: 501 nM
RORγ; [3]
  pIC50 (FF): 7.2
RORγ; [4]
  pIC50 (REN): 7.3

## Cc1c(C(=O)NC2COC2)cc(-c2cc(C(=O)N(C)C(C)(C)C)cc(C(C)(C)C)c2)n1CC1CCCCC1 [15/4]
[1]
  IC50: 1580 nM
RORγ
  pIC50 (FF): 5.8/7.3/7.3
  pIC50 (REN): 5.8/7.3/7.3
